Assay [1] deals with 3D human testicular organoids. The experiment in a line: Drug toxicity test, CellTiter-Glo ATP viability, 3D testicular organoids. The assay is classed as cell-based. The note with it: 48 hours exposure, ATP content. How it is done:
Isolated human SSC, immortalized Sertoli cells, and immortalized Leydig cells at passage 5-6 were propagated in normal 6-well tissue culture plates to 80-90% confluency and passaged using trypsin EDTA (0.25%). Counted cells were pelleted and resuspended in a testicular organoid formation medium composed of normal StemPro®-34 (Invitrogen) SSC proliferation medium supplemented with 30% FBS, 1 μg/mL solubilized human testis extracellular matrix extract and 50 μg/mL Gentamycin. All three cell suspensions were combined together at a ratio of 8:1:1 and seeded into Perfecta3D® 96-well hanging drop plates (3D Biomatrix, Ann Arbor, Mich.) or GravityPLUS™ 96-well hanging drop plates (InSphero, Schlieren, Switzerland) at a density of 10,000 cells/40 μl drop volume. Following 48-72 hours of hanging drop culture, all testicular cell subtypes had amalgamated into compact organoids and were transferred into 96-well format Corning® Costar® Ultra-low Attachment Multiwell U-bottom plates for long term culture (Sigma-Aldrich, St. Louis, Mo.). For long-term study, all testicular organoids were cultured inn normal StemPro®-34 SSC proliferation medium without human leukemia inhibitory factor (LIF) and supplemented with 1 μg/mL solubilized human testis extracellular matrix extract, 2 μM retinoic acid (Sigma-Aldrich), 2.5×10^−5 IU follicle-stimulating hormone (Sigma-Aldrich), 100 ng/mL recombinant human stem cell factor (SCF; PeproTech, Rocky Hill, N.J.), and 50 μg/mL Gentamycin. Culture medium was refreshed every 4 days. All testicular organoids were cultured at 34° C. and 5% CO2.
(§1) For toxicity testing, cisplatin and etoposide were purchased from Santa Cruz Biotechnology (Dallas, Tex.) and stock solutions of 5 mM and 25 mM were made in 0.9% NaCl and DMSO, respectively. Doxorubicin was purchased from Sigma-Aldrich, (St. Louis, Mo.) and a stock solution was produced in diH2O at a concentration of 10 mM. Busulfan (24 mM) was purchased from Otsuka Pharmaceutical (Tokyo, Japan) and was diluted into medium immediately prior to use. The undifferentiated (just after formation, 2 days in culture) and differentiated (23 days in culture) organoids, as well as 2D cultured cells (at the same cell ratios and density of 3D organoids), were treated for 48 hours in 6 different concentrations of each drug (0.01, 0.1, 1, 10, 100 and 1000 μM) in vitro. After 48 hours, CellTiter-Glo® Luminescent Cell Viability assays were performed (Promega) on all conditions. Briefly, culture plates were removed from the incubator and equilibrated to room temperature for 30 minutes. To each well of the 96-well culture plate, 100 μl of CellTiter-Glo® reagent was added at a 1:1 ratio and plates were moved to an orbital shaker for 5 minutes to induce cell lysis. Plates were incubated at room temperature for 10 minutes to stabilize luminescent signal and read on a Veritas™ luminometer. Integration times of 1 second were used for all samples. All conditions were performed in triplicate and medium only control wells were read and subsequently used for background subtraction. IC50 values were determined using GraphPad Prism® 6 calculated via 4-parameter fit with a 95% confidence interval. All experimental conditions were repeated at least three times.
The use of human testicular organoids as a novel screening tool for reproductive toxicity was assess by exposing 3D organoids to four clinically relevant antimitotic chemotherapeutic drugs: busulfan, cisplatin, doxorubicin, and etoposide. To obtain IC50 values, undifferentiated (2 days in culture) and differentiated (23 days in culture) organoids were exposed to increasing concentrations of drugs for 48 hours. H&E staining as well as Live/Dead viability assays were performed on organoids following drug treatment (FIG. 7A and Figure B, respectively). Drug-treated organoids were harvested and further evaluated for toxicity by measuring ATP production (CellTiter-Glo®; Promega, Madison, Wis.). […]
Background: In ATP-based viability assays light output follows the ATP content of the culture.

Assay [2] relates to 2D cultured cells (SSC, Sertoli, Leydig at the same cell ratios and density of 3D organoids). The experiment in a line: Drug toxicity test, CellTiter-Glo ATP viability, 2D cultured testicular cells. To be noted: 2D culture, 48 hours exposure, ATP content (CellTiter-Glo). The assay is classed as cell-based, human. The protocol:
as §1
The use of human testicular organoids as a novel screening tool for reproductive toxicity was assess by exposing 3D organoids to four clinically relevant antimitotic chemotherapeutic drugs: busulfan, cisplatin, doxorubicin, and etoposide. To obtain IC50 values, undifferentiated (2 days in culture) and differentiated (23 days in culture) organoids were exposed to increasing concentrations of drugs for 48 hours. H&E staining as well as Live/Dead viability assays were performed on organoids following drug treatment (FIG. 7A and Figure B, respectively). Drug-treated organoids were harvested and further evaluated for toxicity by measuring ATP production (CellTiter-Glo®; Promega, Madison, Wis.). Resulting viability was then used to establish IC50 values for organoid cultures (FIG. 7C).

Setting [3] is: Homo sapiens, differentiated organoids (23 days in culture), read-out: 3D IC50 Differentiated Organoids.
[4] abbreviates: Homo sapiens, undifferentiated organoids (2 days in culture), read-out: 3D IC50 Undifferentiated Organoids.

The results in this text go back to patent US10993433B2, “Method of producing in vitro testicular constructs and uses thereof” (Wake Forest University Health Sciences, priority 2015, dated 2021).

Molecules are shown by their SMILES. Like-named read-outs stand apart in the source and are kept apart here.

As to `COc1cc([C@@H]2c3cc4c(cc3[C@@H](O[C@@H]3O[C@@H]5CO[C@@H](C)O[C@H]5[C@H](O)[C@H]3O)[C@H]3COC(=O)[C@H]23)OCO4)cc(OC)c1O` [Etoposide], the IC50 – broadly, the point on the concentration scale where inhibition reaches its midpoint – in assay [1] (setting [3]) was found to be 839 µM; in assay [1] (setting [4]) it was 449 µM; in assay [2] (Homo sapiens, Leydig) it was 43.5 µM.

For the compound `COc1cccc2c1C(=O)c1c(O)c3c(c(O)c1C2=O)C[C@@](O)(C(=O)CO)C[C@@H]3O[C@H]1C[C@H](N)[C@H](O)[C@H](C)O1` [Doxorubicin], the IC50 was determined as 2.76 µM in assay [1] (setting [3]); 1.33 µM in assay [1] (setting [4]); 0.19 µM in assay [2] (Homo sapiens, Leydig).

On to `CS(=O)(=O)OCCCCOS(C)(=O)=O` [Busulfan], for which the 50% inhibitory concentration (IC50) in assay [1] (setting [3]) came to 906 µM; in assay [1] (setting [4]), 830 µM; in assay [2] (Homo sapiens, Leydig), 328 µM.

As for `N.N.[Cl][Pt][Cl]` [Cisplatin], the IC50 in assay [1] (differentiated organoids (23 days in culture), read-out: 3D IC50 Differentiated Organoids) was determined as 158 µM; in assay [1] (undifferentiated organoids (2 days in culture), read-out: 3D IC50 Undifferentiated Organoids), 38.4 µM; in assay [2] it was 23.8 µM.
